The values that follow come from patent US10233158B2, “Arylalkyl- and aryloxyalkyl-substituted epithelial sodium channel blocking compounds” (Parion Sciences, Inc., priority 2013, dated 2019).

Test [1] addresses T1, ENaC (Canis lupus familiaris, UniProt A0A8I3MKE6+A0A8I3Q679+Q95165).
T1 sequence (A0A8I3Q679 1-649): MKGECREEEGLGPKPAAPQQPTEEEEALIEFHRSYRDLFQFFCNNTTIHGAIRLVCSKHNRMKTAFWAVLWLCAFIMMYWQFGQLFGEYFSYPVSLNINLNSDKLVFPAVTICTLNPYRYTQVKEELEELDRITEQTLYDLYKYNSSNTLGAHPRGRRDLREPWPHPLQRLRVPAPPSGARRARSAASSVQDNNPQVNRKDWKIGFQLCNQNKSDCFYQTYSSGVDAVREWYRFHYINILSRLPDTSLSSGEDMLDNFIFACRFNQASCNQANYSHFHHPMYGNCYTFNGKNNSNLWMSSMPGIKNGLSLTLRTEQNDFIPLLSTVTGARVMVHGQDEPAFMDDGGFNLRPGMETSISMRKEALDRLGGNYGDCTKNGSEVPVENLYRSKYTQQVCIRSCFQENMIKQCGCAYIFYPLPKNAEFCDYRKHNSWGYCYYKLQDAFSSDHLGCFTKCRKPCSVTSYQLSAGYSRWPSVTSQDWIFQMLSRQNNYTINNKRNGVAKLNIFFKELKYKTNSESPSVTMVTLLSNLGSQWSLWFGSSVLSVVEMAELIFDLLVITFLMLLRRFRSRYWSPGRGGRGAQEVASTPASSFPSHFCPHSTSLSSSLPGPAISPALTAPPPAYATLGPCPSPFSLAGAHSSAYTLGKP
T1 sequence (Q95165 1-641): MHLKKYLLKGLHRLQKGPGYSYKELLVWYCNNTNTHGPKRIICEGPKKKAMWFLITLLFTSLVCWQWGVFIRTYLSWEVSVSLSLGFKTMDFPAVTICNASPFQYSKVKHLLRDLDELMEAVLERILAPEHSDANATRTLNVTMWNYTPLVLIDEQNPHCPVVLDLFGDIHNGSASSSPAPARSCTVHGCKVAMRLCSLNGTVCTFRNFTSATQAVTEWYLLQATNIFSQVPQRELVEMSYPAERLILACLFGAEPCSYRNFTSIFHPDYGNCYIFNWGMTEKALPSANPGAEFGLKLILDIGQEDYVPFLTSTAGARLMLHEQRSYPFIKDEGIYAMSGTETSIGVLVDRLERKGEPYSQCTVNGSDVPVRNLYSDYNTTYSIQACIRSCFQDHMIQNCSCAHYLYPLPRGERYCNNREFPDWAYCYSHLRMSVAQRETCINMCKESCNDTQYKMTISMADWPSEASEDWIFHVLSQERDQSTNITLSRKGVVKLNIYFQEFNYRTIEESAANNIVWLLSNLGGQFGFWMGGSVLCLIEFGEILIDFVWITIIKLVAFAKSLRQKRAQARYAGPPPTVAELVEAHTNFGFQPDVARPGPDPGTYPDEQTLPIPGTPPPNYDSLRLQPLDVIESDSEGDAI
T1 sequence (A0A8I3MKE6 1-646): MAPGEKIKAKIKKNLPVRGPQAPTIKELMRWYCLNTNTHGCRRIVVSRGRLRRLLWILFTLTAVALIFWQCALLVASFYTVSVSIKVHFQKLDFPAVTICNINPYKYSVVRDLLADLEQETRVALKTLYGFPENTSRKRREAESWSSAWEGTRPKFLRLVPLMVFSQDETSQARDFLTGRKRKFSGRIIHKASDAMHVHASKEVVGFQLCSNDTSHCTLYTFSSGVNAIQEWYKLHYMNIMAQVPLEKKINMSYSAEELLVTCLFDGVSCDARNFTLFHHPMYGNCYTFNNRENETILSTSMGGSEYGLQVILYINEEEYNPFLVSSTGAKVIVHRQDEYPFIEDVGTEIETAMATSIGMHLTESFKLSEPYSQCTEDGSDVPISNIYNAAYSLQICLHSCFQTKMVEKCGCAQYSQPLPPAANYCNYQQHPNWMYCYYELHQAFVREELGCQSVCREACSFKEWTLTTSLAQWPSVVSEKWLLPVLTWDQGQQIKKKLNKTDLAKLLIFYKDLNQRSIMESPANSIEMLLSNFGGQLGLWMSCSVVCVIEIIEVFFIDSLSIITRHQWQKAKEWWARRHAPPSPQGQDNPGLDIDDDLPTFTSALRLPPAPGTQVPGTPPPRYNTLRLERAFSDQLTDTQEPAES
Nature of the test: Inhibition of short-circuit current (ISC) and reversibility, bronchial epithelial monolayers in Ussing chamber, canine cells. Format: cell-based. Particulars: canine bronchial epithelial cells (CBE); mean ± SD (n). Here is the method:
One assay used to assess mechanism of action and/or potency of the compounds of the present invention involves the determination of luminal drug inhibition of airway epithelial sodium currents measured under short circuit current (ISC) using airway epithelial monolayers mounted in Ussing chambers. Cells are obtained from freshly excised human, canine, sheep or rodent airways.
Inhibition of transcellular sodium movement through ENaC was measured using polarized bronchial epithelial cell monolayers mounted in a modified Ussing chamber. Primary cultures of canine or human bronchial epithelial cells grown using an air-liquid interface were tested under voltage clamp conditions. The short-circuit current (ISC) was measured as an index of transepithelial sodium transport to assess potency.
Recovery of short circuit current (ISC) from maximal block was used as an indirect measurement of drug off-rate.

Test [2] has as its target Muc5B (Homo sapiens, UniProt Q9HC84). The following applies: in vitro; cited from earlier work.

For `N=C(NCCCCc1ccc(OCCN(CCCc2cccc3ccccc23)C[C@H](O)[C@@H](O)[C@H](O)[C@H](O)CO)cc1)NC(=O)c1nc(Cl)c(N)nc1N` [Compound 27, 3,5-diamino-6-chloro-N—(N-(4-(4-(2-((3-(naphthalen-1-yl)propyl)((2S,3R,4R,5R)-2,3,4,5,6-pentahydroxyhexyl)amino)ethoxy)phenyl)butyl)carbamimidoyl)pyrazine-2-carboxamide], the IC50 in test [1] was found to be 5.9 ± 4.8 nM.
Same read-out and setting: under `N=C(NCCCCc1ccc(OCCN(CCCc2ccc3ccccc3c2)C[C@H](O)[C@@H](O)[C@H](O)[C@H](O)CO)cc1)NC(=O)c1nc(Cl)c(N)nc1N` [Compound 17, 3,5-diamino-6-chloro-N—(N-(4-(4-(2-((3-(naphthalen-2-yl)propyl)((2S,3R,4R,5R)-2,3,4,5,6-pentahydroxyhexyl)amino)ethoxy)phenyl)butyl)carbamimidoyl)pyrazine-2-carboxamide] stands 5.6 ± 9 nM.
On to `CC(=O)N[C@@H](CS)C(=O)O` [NAC, N-acetyl cysteine], for which, in test [2], the “concentration required to fully reduce Muc5B” value is 200 mM.
Regarding `N=C(NCCCCc1ccc(OCCN(CCCc2ccccc2)C[C@H](O)[C@@H](O)[C@H](O)[C@H](O)CO)cc1)NC(=O)c1nc(Cl)c(N)nc1N` [Compound 12, 3,5-diamino-6-chloro-N—(N-(4-(4-(2-(((2S,3R,4R,5R)-2,3,4,5,6-pentahydroxyhexyl)(3-phenylpropyl)amino)ethoxy)phenyl)butyl)carbamimidoyl)pyrazine-2-carboxamide], 6.6 ± 7 nM corresponded to half-maximal inhibition in test [1] (IC50).
Consider `N=C(NCCCCc1ccc(CCCN(CCCc2ccccc2)C[C@H](O)[C@@H](O)[C@H](O)[C@H](O)CO)cc1)NC(=O)c1nc(Cl)c(N)nc1N` [Compound 40, 3,5-diamino-6-chloro-N—(N-(4-(4-(3-(((2S,3R,4R,5R)-2,3,4,5,6-pentahydroxyhexyl)(3-phenylpropyl)amino)propyl)phenyl)butyl)carbamimidoyl)pyrazine-2-carboxamide], for which, in test [1], the IC50 worked out at 11.8 ± 8.2 nM.

The IC50 is the midpoint of a concentration-inhibition curve.
